According to ChEMBL document CHEMBL1201862, “PubChem BioAssay data set” (2004):
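Cells were grown in 96-well plates and exposed to each compound for 48 hours at five concentrations; endpoints were interpolated linearly between bracketing concentrations, or set to the highest concentration if not reached. Here, GI50 denotes the concentration required for 50% inhibition of growth.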 Calls of active or inactive are those of the source. No stated cut-off is given here; in the data, active = GI50 up to about 1.1 µM and inactive = higher.

Assays:
Experiment in all cases: NCI tumour cell line growth inhibition, 48 h
HCT-15 = tested on: HCT-15
UACC-257 = tested on: UACC-257
CCRF-CEM = tested on: CCRF-CEM
SF-295 = tested on: SF-295
CAKI-1 = tested on: CAKI-1
K562 = tested on: K562
MDA-MB-231 = tested on: MDA-MB-231
ACHN = tested on: ACHN
SW-620 = tested on: SW-620
NCI-H522 = tested on: NCI-H522
U-251 = tested on: U-251
HOP-92 = tested on: HOP-92
NCI-H460 = tested on: NCI-H460
MDA-MB-435 = tested on: MDA-MB-435
HL-60 = tested on: HL-60
SF-539 = tested on: SF-539
SK-MEL-2 = tested on: SK-MEL-2
T47D = tested on: T47D
Hs-578T = tested on: Hs-578T
UO-31 = tested on: UO-31

SMILES | GI50 (HCT-15) | GI50 (UACC-257) | GI50 (CCRF-CEM) | GI50 (SF-295) | GI50 (CAKI-1) | GI50 (K562) | GI50 (MDA-MB-231) | GI50 (ACHN) | GI50 (SW-620) | GI50 (NCI-H522) | GI50 (U-251) | GI50 (HOP-92) | GI50 (NCI-H460) | GI50 (MDA-MB-435) | GI50 (HL-60) | GI50 (SF-539) | GI50 (SK-MEL-2) | GI50 (T47D) | GI50 (Hs-578T) | GI50 (UO-31)
CN(C)CCn1c(=O)c2ccc(NCCCN(C)CCCNc3ccc4c(=O)n(CCN(C)C)c(=O)n5c6ccc([N+](=O)[O-])cc6c(=O)c3c45)c3c(=O)c4cc([N+](=O)[O-])ccc4n(c1=O)c23 | < 0.015 µM | 0.069 µM (active) | < 0.01 µM (active) | 0.0136 µM (active) | < 0.033 µM (active) | < 0.01 µM (active) | < 0.021 µM (active) | < 0.01 µM (active) | < 0.0112 µM (active) | < 0.01 µM (active) | < 0.01 µM (active) | < 0.0354 µM (active) | < 0.01 µM (active) | < 0.0173 µM (active) | < 0.027 µM (active) | < 0.01 µM (active) | 0.0346 µM (active) | 0.0968 µM (active) | 0.0178 µM (active) | 0.0129 µM (active)
CC(=O)O[C@@H]1[C@@H](O)C2=C3[C@]4(C)[C@@H]1C(C)(C)C(=O)C[C@@H]4[C@]3(O)[C@H](OC(C)=O)[C@@]1(C[C@@H]1C)C2=O | 15.3 µM | 13.9 µM (inactive) | 7.82 µM (inactive) | 20.7 µM (inactive) | 15.5 µM (inactive) | 2.71 µM (inactive) | 19.7 µM (inactive) | 18.9 µM (inactive) | 18.3 µM (inactive) | 5.18 µM (inactive) | 16 µM (inactive) | 15.6 µM (inactive) | 15.5 µM (inactive) | 16 µM (inactive) | 13.6 µM (inactive) | 21.3 µM (inactive) | 25.6 µM (inactive) | 16.3 µM (inactive) | 41.2 µM (inactive) | 17.5 µM (inactive)
NS(=O)(=O)c1ccc(NNc2c3ccccc3nc3ccccc23)cc1 | 10 µM | 13.2 µM (inactive) | 6.28 µM (inactive) | 12 µM (inactive) | 13 µM (inactive) | 7.89 µM (inactive) | 15.6 µM (inactive) | 11.4 µM (inactive) | 10.9 µM (inactive) | 11.4 µM (inactive) | 11.7 µM (inactive) | 14.1 µM (inactive) | 12.2 µM (inactive) | 12.4 µM (inactive) | 8.63 µM (inactive) | 12.2 µM (inactive) | 13.5 µM (inactive) | 7.52 µM (inactive) | 14.5 µM (inactive) | 10.9 µM (inactive)
COC(C(=O)C(O)C(C)O)C1CC2C=C3C=C(OC4CC(OC5CC(O)C(OC)C(C)O5)C(OC(C)=O)C(C)O4)C(C)C(O)=C3C(O)=C2C(=O)C1OC1CC(OC2CC(OC3CC(C)(O)C(OC(=O)C(C)C)C(C)O3)C(O)C(C)O2)C(O)C(C)O1 (stereo not given) | < 0.01 µM | < 0.01 µM (active) | < 0.01 µM (active) | < 0.01 µM (active) | < 0.01 µM (active) | < 0.01 µM (active) | < 0.01 µM (active) | < 0.01 µM (active) | < 0.01 µM (active) | < 0.01 µM (active) | < 0.01 µM (active) | < 0.01 µM (active) | < 0.01 µM (active) | < 0.01 µM (active) | < 0.01 µM (active) | < 0.01 µM (active) | < 0.01 µM (active) | < 0.01 µM (active) | < 0.01 µM (active) | < 0.01 µM (active)
CCSC1=N/C(=C\c2ccccc2O)C(Nc2ccc(C)cc2)=N1 | 59.7 µM | 99.1 µM (inactive) | 31 µM (inactive) | 34.4 µM (inactive) | 86.1 µM (inactive) | 28.2 µM (inactive) | > 100 µM (inactive) | 83.6 µM (inactive) | 50.6 µM (inactive) | 20.4 µM (inactive) | 41.9 µM (inactive) | 36.1 µM (inactive) | 38.5 µM (inactive) | 34.4 µM (inactive) | 39 µM (inactive) | 75 µM (inactive) | 19.6 µM (inactive) | 50 µM (inactive) | 56.1 µM (inactive) | > 100 µM (inactive)
O=C1C2=C(CC3=C(C2)CS(=O)(=O)C3)C(=O)C2=C1CC1=C(C2)CS(=O)(=O)C1 | 34.1 µM | 29 µM (inactive) | 12.8 µM (inactive) | 26.7 µM (inactive) | 36 µM (inactive) | 10.6 µM (inactive) | 9.59 µM (inactive) | 36.3 µM (inactive) | 18 µM (inactive) | 11.3 µM (inactive) | 13.5 µM (inactive) | > 46.7 µM (inactive) | > 31.5 µM (inactive) | 9.18 µM (inactive) | 8.93 µM (inactive) | 36.3 µM (inactive) | 32.4 µM (inactive) | 2.34 µM (inactive) | > 32.4 µM (inactive) | 38.1 µM (inactive)
CC1=C(C(=O)c2ccccc2)C23C(=O)N(c4ccccc4)C(=O)C2=C(O)C=CC3(O)N1 (stereo not given) | 24.6 µM | 44.5 µM (inactive) | 35.1 µM (inactive) | 43.4 µM (inactive) | 28.9 µM (inactive) | 10.9 µM (inactive) | 28 µM (inactive) | 15.9 µM (inactive) | 25.9 µM (inactive) | 12.7 µM (inactive) | 28.1 µM (inactive) | 17.5 µM (inactive) | 40.8 µM (inactive) | 40 µM (inactive) | 16.6 µM (inactive) | 47.9 µM (inactive) | 21 µM (inactive) | 37.2 µM (inactive) | > 100 µM (inactive) | 12.2 µM (inactive)
CN1CCN(C(=O)c2cn(Cc3cncn3Cc3ccc4c(c3)OCO4)cc2-c2cccc3ccccc23)CC1 | 17 µM | 14 µM (inactive) | 4.71 µM (inactive) | 6.24 µM (inactive) | 20.5 µM (inactive) | 3.32 µM (inactive) | 9.25 µM (inactive) | 9.98 µM (inactive) | 13.9 µM (inactive) | 5.86 µM (inactive) | 7.73 µM (inactive) | 1.03 µM (active) | 2.46 µM (inactive) | 0.198 µM (active) | 0.337 µM (active) | 21.1 µM (inactive) | 0.268 µM (active) | 15.7 µM (inactive) | 23.2 µM (inactive) | 7.66 µM (inactive)
C=C1C(=O)OC2/C=C(/CO)C3(O)CC(O)C(C)(CC(OC(=O)/C(C)=C/C)C12)O3 (stereo not given) | 7.57 µM | 15.4 µM (inactive) | 2.1 µM (inactive) | 36.3 µM (inactive) | 4.33 µM (inactive) | 4.47 µM (inactive) | 15.3 µM (inactive) | 6.82 µM (inactive) | 3.33 µM (inactive) | 2.4 µM (inactive) | 18.5 µM (inactive) | 9.91 µM (inactive) | 14.9 µM (inactive) | 9.42 µM (inactive) | 6.21 µM (inactive) | 23.9 µM (inactive) | 22.4 µM (inactive) | 10.9 µM (inactive) | 53.5 µM (inactive) | 20.4 µM (inactive)
Cc1nc(-c2ccccc2)c(-c2ccccc2)s1 | 17.7 µM | 25.1 µM (inactive) | 16.5 µM (inactive) | 24.8 µM (inactive) | 20.2 µM (inactive) | 18.8 µM (inactive) | 22.5 µM (inactive) | 26.9 µM (inactive) | 15.7 µM (inactive) | 18.6 µM (inactive) | 15.2 µM (inactive) | 20.6 µM (inactive) | 19.1 µM (inactive) | 17.9 µM (inactive) | 10 µM (inactive) | 22.6 µM (inactive) | 16.7 µM (inactive) | 37.8 µM (inactive) | 21.8 µM (inactive) | 20.2 µM (inactive)
